{"source": "patent US9689042B2", "about": "“Use of glycolytic pathways for inhibiting or measuring oncogenic signaling” (The Regents of the University of California, priority 2012, dated 2017)", "key": {"T4-2 cells [1]": {"test_system": "T4-2 cells", "experiment": "Mitochondrial activity (MitoTracker oxidation) assay in 3D lrECM", "type": "cell-based, human", "method": "(§1) Cells suspended in 200 μl lrECM were seeded in 12 well glass-bottom plates (14 mm diameter; MatTek Corporation). Gels were overlaid with 500 μl H14 media and cultured for 10 days before each assay unless otherwise described.\nFor mitochondrial activity, we slightly modified the method described previously (Morici et al., 2007). Briefly, cells were incubated with 2 μM MitoTracker® Orange CM-H2 TMRos (Invitrogen) for 1 hour and fixed with PFA as above. Cells were counterstained with Hoechst 33342 (Invitrogen), which is known also to bind to DNA stoichiometrically, then MitoTracker and Hoechst staining were measured by taking z-section images from top to bottom of the gels using confocal microscopy.\n(§2) In each assay, one well, containing only lrECM, was made for background measurements. Glucose uptake measured by 2DG uptake, lactate production and MitoTracker staining were normalized using total DNA levels, and presented relative to that of control (either S1 or non-treated T4-2 cells)."}, "[2]": {"test_system": "EGFR, β1 integrin, Akt, MEK, GLUT3, glycolytic enzymes in T4-2 cells", "experiment": "Western blots of signaling intermediates, GLUT3 and metabolic enzymes in 3D lrECM cultures of T4-2 cells", "type": "cell-based, human", "conditions": "T4-2 cells, 3D lrECM", "method": "(§3) Cell colonies were separated from lrECM gels by shaking in PBS containing 5 mM EDTA and the proteinase inhibitor cocktail set I (Calbiochem) on ice for 30 min. Cells were lysed in lysis buffer (1% NP-40, 1% deoxycholate, 2% SDS, 150 mM NaCl, 20 mM Tris-HCl [pH 7.4] plus 5 mM EDTA and protease inhibitor cocktail set I and phosphatase inhibitor cocktail set I [Calbiochem]) and sonicated three times for 30 sec each. Proteins were separated by SDS-PAGE, transferred to nitrocellulose membranes, and probed with antibodies against the following proteins: phosphorylated MEK, MEK, phosphorylated Akt, Akt, phosphorylated AMPK, AMPK, p70S6K, phosphorylated p70S6K, CHOP, EPAC1 (Cell Signaling), β1 integrin, EGFR, activated EGFR, HIF-1α, (Chemicon International), PFKP (Abgent), GAPDH, GLUT3 (GeneTex), LDHA, PDHE1α, DLAT, DLD, HIF-3α, Rap1, sAC, EPAC2, OGT, Lamin A/C (Santa Cruz Biotechnology), Aldolase (Polysciences), GFPT (ProteinTech Group), HIF-2α (Abcam), and HA-tag (Covance). After probing with HRP-conjugated secondary antibodies, blots were developed using SuperSignal West Femto chemiluminescence reagent (Pierce Biotechnology). Images were captured using Fluor Chem 8900 imager (Alpha Innotech)."}, "[3]": {"test_system": "signaling intermediates in MDA-MB-231 cells", "experiment": "Western blots of signaling intermediates in MDA-MB-231 cells", "type": "cell-based, human", "conditions": "IA 40 μM, DON 20 μM", "method": "as §3"}, "T4-2 cells [4]": {"test_system": "T4-2 cells", "experiment": "Glucose uptake assay (IRDye800CW-2DG) in 3D lrECM", "type": "cell-based, human", "method": "as §1\nFor glucose uptake assay, cells were incubated with 1 μM of IRDye800CW-2DG (LI-COR Biosciences) for 1 hour, fixed within gels with 4% paraformaldehyde (PFA) in PBS for 30 min. and stained with DRAQ5 (1:10000 dilution), an infrared dye that binds stoichiometrically to DNA, for 30 min. Cells were extensively washed with PBS, then IRDye800-2DG uptake together with DRAQ5 staining were measured by using Odyssey Infrared Imaging System (LI-COR Biosciences).\nas §2"}, "MDA-MB-231 cells [5]": {"test_system": "MDA-MB-231 cells", "experiment": "In vitro invasive activity (Matrigel invasion chamber)", "type": "cell-based, human", "conditions": "IA 40 μM, DON 20 μM, 17.5 mM glucose, 16 hours", "method": "Invasive activity was examined using BD Biocoat GFR (growth factor reduced) Matrigel invasion chamber (BD Biosciences). Before the assay, lower surface of the membrane of the upper chamber was coated with collagen type I (10 μg/ml). MDA-MB-231 cells cultured on 2D plastic for two days with H14 medium containing different concentrations of glucose (17.5, 1.75 or 0 mM) or supplemented with metabolic inhibitors (40 μM IA or 20 μM DON, with 17.5 mM glucose) were detached by trypsinization, and 25,000 cells in each condition were seeded on the upper chambers. Both upper and lower chambers were filled with medium of the same formulations as that in each 2D culture. After 16 hours, cells were fixed with 4% PFA in PBS and stained with crystal violet."}, "MDA-MB-231 cells [6]": {"test_system": "MDA-MB-231 cells", "experiment": "3D lrECM culture of MDA-MB-231 cells", "type": "cell-based, human", "conditions": "IA 40 μM, DON 20 μM"}, "T4-2 cells [7]": {"test_system": "T4-2 cells", "conditions": "T4-2 cells, 3D lrECM; for phenotypic reversion of the malignant phenotype: 2DG 4 mM, IA 20 μM, OX 50 mM, Azs 20 μM, DON 20 μM, BADGP 5 mM, TM 10 ng/ml, OGM 4 ng/ml, Rapa 0.01-1.0 μM", "method": "HMT-3522 cells were cultured on tissue culture plastic (2D) and in 3D lrECM gels with H14 medium, a 1:1 mix of DMEM/F12 (UCSF Cell Culture Facility) supplemented with 250 ng/ml insulin, 10 μg/ml transferrin, 2.6 ng/ml sodium selenite, 0.1 nM β-estradiol, 1.4 μM hydrocortisone and 5 μg/ml prolactin but no serum. S1 cells were additionally supplemented with 10 ng/ml EGF. MDA-MB-231 and HCC70 cells were cultured in DMEM and RPMI1640, respectively, and were supplemented with 10% fetal bovine serum (FBS).\nFor 3D lrECM cultures, S1 and T4-2 cells were seeded at 840,000 and 600,000 cells per cm3 respectively in lrECM gel (Cultrex), overlaid with H14 medium. MDA-MB-231 and HCC70 cells were seeded at 625,000 cell per cm3 and overlaid with H14 medium supplemented with 1% FBS. Cells were used for each assay after 10 days, unless otherwise indicated.\nPieces of lrECM gel containing cell colonies were suspended in approximately the same volume of phosphate buffered saline (PBS) and directly spread on glass slides. After brief air-drying, colonies were fixed with 3.7% paraformaldehyde (PFA) in PBS at room temperature (RT) for 10 min, washed with PBS containing 0.1 mM glycine, and permeabilized with 1:1 methanol/acetone at −20° C. for 10 min. After blocking with IF buffer (0.2% Triton X-100, 0.1% BSA [radioimmunoassay grade], 0.05% Tween 20, 7.7 mM NaN3 in PBS) containing 10% goat serum and 1% goat F(ab′)2 anti-mouse immunoglobulin G (IgG; Caltag) at RT for 30 min, colonies were stained with anti-α6 integrin antibody (Chemicon International) at 4° C. overnight. Colonies were washed extensively with IF buffer, and stained with Alexa 568-labeled anti-rat IgG antibody at RT for 2 hr. Colonies were washed with IF buffer again, and nuclei were stained with DAPI at RT for 10 min. Slides were briefly washed with PBS and mounted with 50% glycerol in PBS.\nTo test whether increased glucose metabolism itself is required for oncogenic signaling events, we utilized 3D lrECM cultures of HMT-3522, a breast cancer progression series which includes non-malignant (S1) and malignant (T4-2) human breast epithelial cells from the same individual (Briand et al., 1987; Petersen et al., 1992; Rizki et al., 2008). Using these cells, we have described the involvement and reciprocity of multiple signaling pathways including EGFR, β1 integrin, PI3K-Akt and MEK-ERK in oncogenic events (Beliveau et al., 2010; Bissell et al., 2005). […] We thus used this “phenotypic reversion” of the cancer cells as an assay to examine how the signaling integration plan of the breast acini could involve glucose metabolism."}, "T4-2 cells [8]": {"test_system": "T4-2 cells", "experiment": "Lactate production assay in 3D lrECM", "type": "cell-based, human", "method": "as §1\nFor lactate production, on day 9, conditioned-media were harvested to measure lactate remaining in the 200 μl of the gel (assuming equilibrium between medium and gel, C0 nmol/μl). […] After 24 hours, total culture medium was harvested for measurement of final lactate concentrations (C nmol/μl) and total volumes (V μl) of the conditioned-media, and the cells in gel were fixed with PFA as above. Concentration of lactate in each sample was measured using a lactate assay kit (BioVision). Net lactate production within 24 hours (N) was calculated as follows: N=C×(V+200)−C0×200. Fixed cells were stained with DRAQ5, to measure total level of DNA as a surrogate for number of cells, and the staining was measured as above.\nas §2"}, "HCC70 cells": {"test_system": "HCC70 cells", "experiment": "3D lrECM culture of HCC70 cells", "type": "cell-based, human", "conditions": "IA 2 μM, DON 20 μM"}, "Rap1": {"test_system": "Rap1", "experiment": "Measurement of Rap1 activity (GST-RalGDS-RBD pull-down) in T4-2 cells", "type": "cell-based, human", "conditions": "T4-2 cells, 3D lrECM, IA 20 μM", "method": "Rap1 activity was measured as described previously (Itoh et al., 2007). Briefly, cell colonies were extracted from lrECM as described above, and lysed in lysis buffer (50 mM Tris-HCl [pH 7.4], 500 mM NaCl, 1% NP40, 2.5 mM MgCl2, 10% glycerol, 10 μg/ml aprotinin and 10 μg/ml leupeptin) at 4° C. for 30 min. Lysates were cleared by centrifugation at 15,000×g at 4° C. for 15 min. Supernatants (containing 300 μg protein in 300 μl) were incubated with 15 μg of GST-tagged RalGDS-RBD fusion protein immobilized on Glutathione Sepharose 4B beads (GE Healthcare), at 4° C. for 1 hr. Beads were washed trice in lysis buffer and resuspended in Laemmli buffer. Samples were separated by SDS-PAGE, followed by transfer to polyvinylidene fluoride membranes (0.2 μm pore) and immunoblotting using anti-Rap1 antibody."}, "[9]": {"conditions": "same inhibitor concentrations as E1"}}, "note": "“Also recorded” adds a separate entry of the source.", "data": [{"compound": "[N-]=[N+]=CC(=O)CC[C@H](N)C(=O)O", "note": "[DON, 6-diazo-5-oxonorleucine]", "values": [{"measurement": "mitochondrial activity (oxidation)", "setting": "T4-2 cells [1]", "result": "remained unaltered"}, {"measurement": "levels and/or activities of EGFR, β1 integrin, Akt and MEK (oncogenic signaling)", "setting": "[2]; Western blot", "result": "suppression of activation of oncogenic signaling"}, {"measurement": "EGFR expression and activity", "setting": "[2]; Azs 20 μM, DON 20 μM", "result": "significantly down-regulated"}, {"measurement": "other signaling activities", "setting": "[3]", "result": "appreciable decrease"}, {"measurement": "glucose uptake", "setting": "T4-2 cells [4]", "result": "significantly down-regulated"}, {"measurement": "invasive property", "setting": "MDA-MB-231 cells [5]", "result": "appreciable decrease"}, {"measurement": "altered phenotype", "setting": "MDA-MB-231 cells [6]", "result": "incomplete but still significant"}, {"measurement": "proliferation (total cell numbers)", "setting": "MDA-MB-231 cells [6]", "result": "appreciable decrease"}, {"measurement": "phenotypic reversion of the malignant phenotype", "setting": "T4-2 cells [7]", "result": "do induce phenotypic reversion; also recorded: induced the repertoire of the reversion phenotype"}, {"measurement": "basal polarity / organized acinar structures", "setting": "T4-2 cells [7]; [9]", "result": "re-establishment of tissue polarity"}, {"measurement": "growth / proliferation (cell numbers at the colony mid-section, EdU incorporation)", "setting": "T4-2 cells [7]; [9]", "result": "growth arrest"}, {"measurement": "lactate production", "setting": "T4-2 cells [8]", "result": "significantly down-regulated"}, {"measurement": "reversion phenotype", "setting": "HCC70 cells", "result": "reversion phenotype was similar to that in T4-2 cells"}]}, {"compound": "O=C(O)CI", "note": "[IA, Iodoacetate]", "values": [{"measurement": "EGFR and MEK", "setting": "[2]; basal medium 17.5 mM glucose, IA 20 μM, OX 50 mM", "result": "not affected appreciably"}, {"measurement": "Rap1 activity", "setting": "Rap1", "result": "down-regulation of Rap1 activity without a change in its total protein level"}, {"measurement": "other signaling activities", "setting": "[3]", "result": "appreciable decrease"}, {"measurement": "invasive property", "setting": "MDA-MB-231 cells [5]", "result": "appreciable decrease"}, {"measurement": "altered phenotype", "setting": "MDA-MB-231 cells [6]", "result": "incomplete but still significant"}, {"measurement": "proliferation (total cell numbers)", "setting": "MDA-MB-231 cells [6]", "result": "appreciable decrease"}, {"measurement": "phenotypic reversion of the malignant phenotype", "setting": "T4-2 cells [7]", "result": "do induce phenotypic reversion"}, {"measurement": "reversion phenotype", "setting": "HCC70 cells", "result": "reversion phenotype was similar to that in T4-2 cells"}]}]}
